Measurements from patent US7820624B2, “Peptide ligands” (ICH Productions Limited, priority 2003, dated 2010).

Legend:
[1] = tested on: human monocyte-derived immature dendritic cells; assay: Titration of phage clone binding to human dendritic cells; details: 2×10^11 phage on 5×10^4 cells, 1 hour on ice
Method: Phage were recovered and titred from each round of selection as follows. 2×10^11 Blocked phage were added to 5×10^4 blocked monocyte-derived immature dendritic cells for 1 hour on ice before washing cells three times with 0.05% Tween20-PBS, eluting phage with TBS pH5.5, and lysing cells to harvest the phage remaining bound. The numbers of phage harvested by cell lysis were calculated as plaque forming units (pfu). […] Sequencing of the bound phage shown in FIG. 1 identified the peptides as APSNSTA [SEQ. ID. NO.:15], QLLTGAS [SEQ. ID. NO.:30], TARDYRL [SEQ. ID. NO.:31], FQSQYQK [SEQ. ID. NO.:26], PLMPSLS [SEQ. ID. NO.:24], FPRAPHH [SEQ. ID. NO.:32], MASISMK [SEQ. ID. NO.:27], DWWHTSA [SEQ. ID. NO.:28], SHVKLNS [SEQ. ID. NO.:29], and SPALKTV [SEQ. ID. NO.:16].
(§1) The dendritic cells were spun down at 2000 rpm, for 5 min at 4° C., and resuspended in the phage solution, allowing the phage to bind for 1 hour on ice with occasional mixing. The cells were then washed in PBS-Tween 20 (0.05%) three times before eluting phage with 166 μl TBS pH5.5. for 10 min on ice. The eluate was neutralised with […] Tris-HCl pH 8, the cells were spun down, and the supernatant removed to be stored as eluate. The cell pellet was resuspended in 200 μl of cell lysis buffer (30 mM Tris-HCl, 1 mM EDTA pH 8.0) for 1 hour on ice, with shaking. The cell debris was removed by spinning at 5000 rpm for 5 min and the supernatant recovered. The phage in the eluate and the cell lysate were titred by measuring plaque forming units (pfu) in E. coli ER2738 as described in the NEB C7C technical bulletin.
(§2) The titration of phage clone binding was carried out using human and mouse dendritic cells, with binding to plastic as a control. The human cells were obtained from donors as stated below.

mouse dendritic cells = assay: Titration of phage clone binding to mouse dendritic cells; details: 2×10^11 phage
Method: as §1, §2

[2] = tested on: human peripheral blood monocytes; assay: LID transfection of monocytes, EGFP by FACS and cell death; type: cell-based; details: for Percentages of cells transfected (ranking): FIG. 7a
Method: Lipopolyplex (LID) transfection complexes comprising lipid (L), peptide (in the form of a peptide derivative as described above) (I) and DNA (D) were prepared. The lipid component was Lipofectin or Lipofectamine 2000 (Invitrogen Ltd, Paisley, UK), the peptide component was a synthesized peptide A to F, 6 or 6J derivative, as described in Table 7 above, and the DNA was the plasmid pEGFP-N1 (Clontech, BD Biosciences, Palo Alto, Calif.)
component (Lipofectin or Lipofectamine 2000) was maintained at a constant proportion, by weight, relative to DNA of 0.75:1. Prior to making transfection complexes, in method A the lipid component was diluted to a concentration of 15 μg per ml, the peptide was prepared at 0.1 mg/ml and the DNA (plasmid pEGFP-N1, BD Biosciences, Cowley, UK, prepared using EndoFree plasmid kit, Qiagen Ltd, Crawley, UK) was at 10 μg per ml. All dilutions were performed with OptiMEM reduced serum tissue culture medium (Life Technologies Ltd, Paisley, UK). In method B prior to making transfection complexes the lipid component was diluted to a concentration of 30 μg per ml, the peptide was prepared at 0.1 mg/ml and the DNA (plasmid pEGFP-N1, BD Biosciences, Cowley, UK, prepared using EndoFree plasmid kit, Qiagen Ltd, Crawley, UK) was at […]. All dilutions were performed in serum-free RPMI.
Transfection complexes were made by mixing the components in the order 1) lipid (50 μl) then 2) peptide (70 μl) and finally 3) DNA (50 μl), then diluting with OptiMEM or serum free RPMI, as appropriate, to a concentration relative to the DNA component of 2 μg DNA per […] (OptiMEM) or 500 μl (RPMI).
For transfection of monocytes, peripheral blood monocytes were prepared using Lymphoprep centrifugation and CD14 bead selection as described in the method for preparation of monocyte derived dendritic cells in Example 1(v) above. These cells were then transfected as described as described for dendritic cells except that transfection of the monocytes (and also of day 3 or day 4 immature dendritic cells) was carried out in solution.

N2a (Neuro2A) cells = assay: LID transfection, luciferase reporter assay, N2a; type: cell-based, mouse; details: LID with lipofectin
Method: Transfection complexes comprising lipid, peptide and DNA were prepared. The lipid component was lipofectin (Invitrogen Ltd, Paisley, UK), the peptide component was a peptide A to F, 6 or 6J derivative, as described above, and the DNA was the plasmid pCILuc (Promega UK Ltd, Southampton). In the transfection complex, peptide to DNA charge ratios (+/−) were used at 3:1, 5:1 and 7:1. The lipid component was maintained at a constant proportion, by weight, relative to DNA of 0.75:1. Prior to making transfection complexes the lipid component was diluted to a concentration of 15 μg or 30 μg per ml, the peptide was prepared at 0.1 mg/ml and the DNA was at 40 μg per ml. All dilutions were performed with OptiMEM reduced serum tissue culture medium (Life Technologies). Transfection complexes were made by mixing of components in the order 1) lipid then 2) peptide and finally 3) DNA, then diluted with OptiMEM to a concentration relative to the DNA component of 0.25 μg DNA per […]
For transfection of these types of cell i.e. HMEC, HAEo-, N2a and HepG2, 1×10^4 cells were seeded overnight in 96 well plate. 200 μl of the suspension of the transfection complex prepared according to (b) above was added to each well. The suspension was applied to cells within 5 minutes of preparation. […]

Row | Substance | Phage harvested by cell lysis (pfu), human donor S [1] | Phage harvested by cell lysis (pfu), human donor one [1] | Phage harvested by cell lysis (pfu), human donor two [1] | Phage titre (pfu), mouse DCs (mouse dendritic cells) | Percentages of cells transfected (ranking) [2] | Transfection efficiency (luciferase activity per mg protein) relative to peptide 6 (N2a (Neuro2A) cells) | Percent positive for EGFP ([2]; combined with Lipofectin)
1 | APSNSTA (Synthetic peptide binding to dendritic cells) | 6480 pfu ×10^3 | 1920 pfu ×10^3 | 460 pfu ×10^3 | 480 pfu ×10^3 | highest percentages of cells transfected | less than half that value | –
2 | SHVKLNS (Synthetic peptide binding to dendritic cells) | 7280 pfu ×10^3 | 2620 pfu ×10^3 | 1160 pfu ×10^3 | 2120 pfu ×10^3 | highest percentages of cells transfected | equal to those seen with peptide 6 | 6%
